Assay results published in US5106863A, “Substituted imidazole and pyridine derivatives” (Ortho Pharmaceutical Corporation, priority 1990, dated 1992).
Where a name gives a salt, the structure may show the parent alone. Read-outs that look alike come from different tables or passages of the source.

How the values were obtained:
[1] = tested on: stimulated parietal cells; assay: Isolated Parietal Cell Assay: inhibition of 14C-aminopyrine accumulation in stimulated parietal cells; type: cell-based, rabbit; conditions: 37° C.
Experimental: Isolated Parietal Cell Assay Using the procedures described in Batzri, S. et al., Biochemica et Biophysica Acta 508, 328 (1978), and Soll, H., Am. J. Physiol. 238, […] (1980), the example compounds were tested for their ability to inhibit ^14 C-aminopyrine accumulation in stimulated parietal cells. Parietal cells were isolated from the fundic mucosa of rabbit stomachs by a four-stage collagenese digestion process. The supernatant fraction from the last two stages of this process contain the individual parietal cells. This cell suspension was centrifuged and reconstituted in a modified Hank's buffer to contain 1-2×10^6 cells/ml. […] […] […] The flasks were incubated in a shaking water bath at 37° C. and gassed with 95% O2, 5% CO2 for 20 minutes. Three aliquots were then taken from each flask, and cell pellets were collected by centrifugation. The pellets were then solubilized with Protosol (NEN) and the radioactivity determined by liquid scintillation spectrometry.

H^+ /K^+ ATPase = target: T1, H^+ /K^+ ATPase (Oryctolagus cuniculus, UniProt P27112); assay: Isolated H^+ /K^+ ATPase Assay: inhibition of K+ stimulated response in vesicular membranes from rabbit gastric mucosa; type: biochemical; conditions: 10 min preincubation, 15 min at 37° C.
T1 construct: microsomes prepared from a crude homogenate of rabbit gastric mucosa using differential centrifugation; from tissue; host or cells: rabbit gastric mucosa (microsomes, vesicular membranes)
Experimental: Isolated H^+ /K^+ ATPase Assay
Using the procedures described in Eibl, H. et al., Analytical Biochemistry 30, 51 (1969), Ganser, A. L. et al., Biochem. Biophys. Acta 307, 169 (1973), and Beil, W. et al., Br. J. Pharmac. 82, 651 (1984), the example compounds were tested for their ability to inhibit the H^+ /K^+ ATPase enzyme in the vesicular membranes from rabbit gastric mucosa. The H^+ /K^+ ATPase enzyme activity is present in microsomes prepared from a crude homogenate of rabbit gastric mucosa using differential centrifugation.
Assays were conducted in duplicate tubes in a 1 mL reaction volume consisting of 50 mM Tris buffer, 2mM MgCl2, ±10 mM KCl, 10 μl of example compound in dimethylsulfoxide and 20-30 μg of protein. The tubes were preincubated for 10 minutes in a 37° C. shaking water bath before the substrate, (Na2 ATP) was added. The mixture was then incubated for 15 minutes at 37° C. The reaction was stopped with 1 mL of 14% TCA and the tubes were centrifuged at 2000 rpm for 10 minutes.
The amount of inorganic phosphate (Pi) present in each sample was compared to a potassium phosphate standard curve.

[2] = Oryctolagus cuniculus, 20 min, DcAMP, read-out: Antisecretory Activity in Parietal Cell Assay, DcAMP (IC50)
[3] = Oryctolagus cuniculus, 20 min, HI, histamine-stimulated, read-out: Antisecretory Activity in Parietal Cell Assay, HI (IC50)

T1 sequence (P27112 2-1035 limits assumed): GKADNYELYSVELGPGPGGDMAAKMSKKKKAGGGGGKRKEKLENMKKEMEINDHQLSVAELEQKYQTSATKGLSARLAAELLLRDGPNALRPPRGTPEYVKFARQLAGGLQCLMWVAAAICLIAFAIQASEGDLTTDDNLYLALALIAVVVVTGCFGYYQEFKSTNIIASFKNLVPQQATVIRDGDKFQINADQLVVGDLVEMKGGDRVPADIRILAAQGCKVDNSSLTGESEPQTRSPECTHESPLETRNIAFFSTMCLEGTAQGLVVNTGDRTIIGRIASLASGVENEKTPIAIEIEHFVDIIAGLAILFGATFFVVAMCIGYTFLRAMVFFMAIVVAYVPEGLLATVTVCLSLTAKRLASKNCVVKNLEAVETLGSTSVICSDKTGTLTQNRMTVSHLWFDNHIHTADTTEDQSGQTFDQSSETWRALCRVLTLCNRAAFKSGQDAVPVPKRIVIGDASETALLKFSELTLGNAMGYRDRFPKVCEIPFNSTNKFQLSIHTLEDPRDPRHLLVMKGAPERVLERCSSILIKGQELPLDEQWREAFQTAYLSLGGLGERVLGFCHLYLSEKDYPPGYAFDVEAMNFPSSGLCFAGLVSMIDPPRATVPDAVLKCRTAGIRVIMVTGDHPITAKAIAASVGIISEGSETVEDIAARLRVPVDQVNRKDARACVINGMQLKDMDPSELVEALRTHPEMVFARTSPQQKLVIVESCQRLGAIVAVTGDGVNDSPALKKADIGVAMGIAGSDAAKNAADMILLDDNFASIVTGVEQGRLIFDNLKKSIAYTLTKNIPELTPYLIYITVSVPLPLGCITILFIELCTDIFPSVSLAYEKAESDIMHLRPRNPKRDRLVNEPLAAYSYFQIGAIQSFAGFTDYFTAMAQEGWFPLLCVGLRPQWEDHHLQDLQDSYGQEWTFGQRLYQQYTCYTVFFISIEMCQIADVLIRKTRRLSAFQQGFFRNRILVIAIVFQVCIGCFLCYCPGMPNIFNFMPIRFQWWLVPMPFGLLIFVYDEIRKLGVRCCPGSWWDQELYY
T1 sequence (P18597 whole entry partner): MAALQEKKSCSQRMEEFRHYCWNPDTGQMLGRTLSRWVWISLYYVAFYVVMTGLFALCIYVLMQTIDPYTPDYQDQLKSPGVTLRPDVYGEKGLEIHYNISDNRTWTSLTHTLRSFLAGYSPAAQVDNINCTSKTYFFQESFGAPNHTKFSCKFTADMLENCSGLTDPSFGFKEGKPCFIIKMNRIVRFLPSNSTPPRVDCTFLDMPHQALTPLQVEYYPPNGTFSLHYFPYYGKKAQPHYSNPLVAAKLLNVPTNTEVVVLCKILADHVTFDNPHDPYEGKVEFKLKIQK

Compound	IC50 [1, 2]	IC50 [1, 3]	IC50 (H^+ /K^+ ATPase)	IC50 ([1]; DcAMP, 20 minutes, read-out: Antisecretory Activity in Parietal Cell Assay, DcAMP (IC50))	IC50 ([1]; HI, histamine-stimulated, 20 minutes, read-out: Antisecretory Activity in Parietal Cell Assay, HI (IC50))
COc1c(C)cnc(Cn2c(SC/C=C(\C)CCC=C(C)C)nc3ccccc32)c1C [Example 5, 1-(3,5-Dimethyl-4-methoxy-2-pyridylmethyl)-2-[(3,7-dimethyl-2,6(E)-octadienyl)thio]-1H-1,3-benzimidazole Monooxalate Hemihydrate]	19000 nM	4000 nM	3200 nM		
CC(C)=CCC/C(C)=C/CSc1nc2cc(C(F)(F)F)ccc2[nH]1 [Example 6, 5-Trifluoromethyl-2-[(3,7-dimethyl-2,6(E)-octadienyl)thio]-1H-1,3-benzimidazole]	510 nM	460 nM			
CC(C)=CCC[C@H](C)CCSc1nc2ccccc2[nH]1 [Example 7, 3S(+)-2-[(3,7-Dimethyl-6-octen-1-yl)thio]-1H-1,3-benzimidazole]	2200 nM	2200 nM			
COc1c(C)cnc(Cn2c(SCC[C@@H](C)CCC=C(C)C)nc3ccccc32)c1C [Example 9, 1-(3,5-Dimethyl-4-methoxy-2-pyridylmethyl)-2-[(3,7-dimethyl-6-octen-1-yl)thio]-1H-1,3-benzimidazole Monooxalate]	1250 nM	2000 nM	3000 nM		
CC(C)=CCC/C(C)=C/CSc1nc2cc(F)c(Cl)cc2[nH]1 [Example 3, 6-Chloro-5-fluoro-2-[(3,7-dimethyl-2,6(E)-octadienyl)thio]-1H-1,3-benzimidazole.1/4Hydrate]	2300 nM	3100 nM	5600 nM		
CC(C)=CCC/C(C)=C/CSc1nc2ccccc2[nH]1 [Example 1, 2-[(3,7-Dimethyl-2,6(E)-octadienyl)-thio]-1H-1,3-benzimidazole]	2150 nM	1300 nM			
CC(C)=CCC/C(C)=C/CSc1nc2cc(Cl)ccc2[nH]1 [Example 2, 5-Chloro-2-[(3,7-dimethyl-2,6(E)-octadienyl)-thio]-1H-1,3-benzimidazole]	3500 nM	2300 nM	5000 nM		
CC(C)=CCCC(C)CC[S+]([O-])c1nc2ccccc2[nH]1 (single isomer, unassigned; (+)) [Example 8, (+)-2-[(3,7-Dimethyl-6-octen-1-yl)sulfinyl]-1H-1,3-benzimidazole Monooxalate]	33300 nM	40000 nM	72000 nM		
CC(C)=CCC/C(C)=C\CSc1nc2ccccc2n1C/C=C(/C)CCC=C(C)C [Example 10, 1-(3,7-Dimethyl-2,6(Z)-octadienyl)-2-[(3,7-dimethyl-2,6(Z)-octadienyl)-thio]-1H-1,3-benzimidazole Monooxalate]	1100 nM	1700 nM			
COc1ccc2[nH]c(SC/C=C(\C)CCC=C(C)C)nc2c1 [Example 4, 2-[(3,7-Dimethyl-2,6(E)-octadienyl)thio]-5-methoxy-1H-1,3-benzimidazole Monooxalate]	2100 nM	700 nM			

More lines, now with the values ahead:

IC50 [1, 2]	IC50 [1, 3]	IC50 (H^+ /K^+ ATPase)	IC50 ([1]; DcAMP, 20 minutes, read-out: Antisecretory Activity in Parietal Cell Assay, DcAMP (IC50))	IC50 ([1]; HI, histamine-stimulated, 20 minutes, read-out: Antisecretory Activity in Parietal Cell Assay, HI (IC50))	Compound
1100 nM	1700 nM				CC(C)=CCC[C@H](C)CCSc1nccn1C [Example 17, 3S-2-[(3,7-Dimethyl-6-octen-1-yl)thio]-1-methylimidazole]
	2400 nM				CCCCCCCCSc1nc2cc(Cl)ccc2[nH]1 [Example 14, 5-Chloro-2-octylthio-1H-1,3-benzimidazole]
2900 nM	2400 nM	9600 nM			CC(C)=CCC/C(C)=C/CSCc1ccccn1 [Example 15, 2-[3,7-Dimethyl-2,6(E)octadienylthiomethyl]pyridine.1/10 Hydrate]
3100 nM	2800 nM				CC(C)=CCC/C(C)=C\CSc1nc2ccccc2[nH]1 [Example 11, 2-[(3,7-Dimethyl-2,6(Z)-octadienyl)-thio]-1H-1,3-benzimidazole.1/4Hydrate]
		10000 nM	1600 nM	430 nM	5 (and 6)-Chloro-2-methyl-1-(3,7-dimethyl-2,6(E)-octadienyl)-1H-1,3-benzimidazoleMonohydrochloride.1/4H2 O [Example 20]
3000 nM	40000 nM	860 nM			CSc1ccc(-c2nc3ccccc3n2C/C=C(\C)CCC=C(C)C)cc1 [Example 21, 1-(3,7-Dimethyl-2,6(E)-octadienyl)-2-(4-methylthiophenyl)-1H-1,3-benzimidazole Monooxalate.H2 O]
860 nM	800 nM	28000 nM			COc1ccc2ncn(C/C=C(\C)CCC=C(C)C)c2c1 [Example 18, 1-(3,7-Dimethyl-2,6(E)-octadienyl)-6-methoxy-1H-1,3-benzimidazole Monooxalate]
1000 nM	1900 nM				CCCCCCCCSc1nc2ccccc2[nH]1 [Example 12, 2-Octylthio-1H-1,3-benzimidazole]
	1300 nM				CCCCCCCCSc1nc2cc(OC)ccc2[nH]1 [Example 13, 5-Methoxy-2-octylthio-1H-1,3-benzimidazole Hemioxalate Monohydrate]
3300 nM	2000 nM	15000 nM			CC(C)=CCC/C(C)=C/Cn1c(CO)nc2ccccc21 [Example 19, 1-[3,7-Dimethyl-2,6(E)-octadienyl]-2-hydroxymethyl-1H-1,3-benzimidazole Hydrochloride.1/4H2 O]
